Structures are written as SMILES.

This is an account of results in patent publication EP1969935A1, “3.4-disubstituted phenoxy phenylamidines and their use as fungicides” (Bayer CropScience AG, priority 2007, dated 2008).

One series is described as follows: logP determination. Type of series: physicochemical. Particulars: pH 2.3; given in the preparation examples; read-out: log P (pH2.3).
A further series relates to Podosphaera leucotricha. Put plainly: Podosphaera test (apple) / protective. Conditions: 100ppm active ingredient, apple plants sprayed protectively, evaluated 10 days after inoculation; 0% = control, 100% = no infestation. Format: in vivo. An excerpt: Beispiel 1: Podosphaera-Test (Apfel) / protektiv
(§1) Zur Herstellung einer zweckmäßigen Wirkstoffzubereitung vermischt man 1 Gewichtsteil Wirkstoff mit den angegebenen Mengen Lösungsmittel und Emulgator und verdünnt das Konzentrat mit Wasser auf die gewünschte Konzentration.
Zur Prüfung auf protektive Wirksamkeit werden junge Pflanzen mit der Wirkstoffzubereitung in der angegebenen Aufwandmenge besprüht. Nach Antrocknen des Spritzbelages werden die Pflanzen mit einer wäßrigen Sporensuspension des Apfelmehltauerregers Podosphaera leucotricha inokuliert. Die Pflanzen werden dann im Gewächshaus bei ca. 23°C und einer relativen Luftfeuchtigkeit von ca. 70% aufgestellt.
(§2) 10 Tage nach der Inokulation erfolgt die Auswertung. Dabei bedeutet 0% ein Wirkungsgrad, der demjenigen der Kontrolle entspricht, während ein Wirkungsgrad von 100% bedeutet, daß kein Befall beobachtet wird.

Series [1] relates to Erysiphe graminis f.sp. hordei. Put plainly: Erysiphe test (barley) / protective. Type of series: in vivo. Particulars: 1000 ppm active ingredient, barley plants sprayed protectively, evaluated 7 days after inoculation; 0% = control, 100% = no infestation.
Text: Beispiel 4: Erysiphe-Test (Gerste) / protektiv
as §1
Zur Prüfung auf protektive Wirksamkeit besprüht man junge Pflanzen mit der Wirkstoffzubereitung in der angegebenen Aufwandmenge.
Nach Antrocknen des Spritzbelages werden die Pflanzen mit Sporen von Erysiphe graminis f.sp. hordei bestäubt.
Die Pflanzen werden in einem Gewächshaus bei einer Temperatur von ca. 20°C und einer relativen Luftfeuchtigkeit von ca. 80 % aufgestellt, um die Entwicklung von Mehltaupusteln zu begünstigen.
7 Tage nach der Inokulation erfolgt die Auswertung. Dabei bedeutet 0 % ein Wirkungsgrad, der demjenigen der Kontrolle entspricht, während ein Wirkungsgrad von 100 % bedeutet, daß kein Befall beobachtet wird.

The next series concerns Sphaerotheca fuliginea. Kind of series: Sphaerotheca test (cucumber) / protective. Particulars: 100ppm active ingredient, cucumber plants sprayed protectively, evaluated 7 days after inoculation; 0% = control, 100% = no infestation. Format: in vivo.
Text: Beispiel 2: Sphaerotheca-Test (Gurke) / protektiv
as §1
Zur Prüfung auf protektive Wirksamkeit werden junge Pflanzen mit der Wirkstoffzubereitung in der angegebenen Aufwandmenge besprüht. Nach Antrocknen des Spritzbelages werden die Pflanzen mit einer wäßrigen Sporensuspension von Sphaerotheca fuliginea inokuliert. Die Pflanzen werden dann bei ca. 23°C und einer relativen Luftfeuchtigkeit von ca. 70% im Gewächshaus aufgestellt.
7 Tage nach der Inokulation erfolgt die Auswertung. Dabei bedeutet 0% ein Wirkungsgrad, der demjenigen der Kontrolle entspricht, während ein Wirkungsgrad von 100% bedeutet, daß kein Befall beobachtet wird.

For the next series, the system named is Alternaria solani. Kind of series: Alternaria test (tomato) / protective. Format: in vivo. Particulars: 500ppm active ingredient, tomato plants sprayed protectively, inoculated 1 day after treatment, evaluated 7 days after inoculation; 0% = control, 100% = no infestation.
Text: Beispiel 5: Alternaria-Test (Tomate) / protektiv
as §1
Zur Prüfung auf protektive Wirksamkeit bespritzt man junge Tomatenpflanzen mit der Wirkstoffzubereitung in der angegebenen Aufwandmenge. 1 Tag nach der Behandlung werden die Pflanzen mit einer Sporensuspension von Alternaria solani inokuliert und stehen dann 24h bei 100% rel. Feuchte und 20°C. Anschließend stehen die Pflanzen bei 96% rel. Luftfeuchtigkeit und einer Temperatur von 20 °C.
7 Tage nach der Inokulation erfolgt die Auswertung. Dabei bedeutet 0 % ein Wirkungsgrad, der demjenigen der Kontrolle entspricht, während ein Wirkungsgrad von 100 % bedeutet, dass kein Befall beobachtet wird.

The test system of the next series is Uromyces appendiculatus. Put plainly: Uromyces test (bean) / protective. Format: in vivo. Particulars: 10ppm active ingredient, bean plants sprayed protectively, evaluated 10 days after inoculation; 0% = control, 100% = no infestation.
Text: In diesem Test zeigen die erfindungsgemäßen Verbindungen 10, 11, 12 und 13 (siehe Tab.IV) bei einer Konzentration an Wirkstoff von 100ppm einen Wirkungsgrad von 70% oder mehr. Beispiel 3: Uromyces - Test (Bohne) / protektiv
as §1
Zur Prüfung auf protektive Wirksamkeit werden junge Pflanzen mit der Wirkstoffzubereitung in der angegebenen Aufwandmenge besprüht. Nach Antrocknen des Spritzbelages werden die Pflanzen mit einer wäßrigen Sporensuspension des Bohnenrosterregers Uromyces appendiculatus inokuliert und verbleiben dann 1 Tag bei ca. 20°C und 100% relativer Luftfeuchtigkeit in einer Inkubations-kabine.
Die Pflanzen werden dann im Gewächshaus bei ca. 21°C und einer relativen Luftfeuchtigkeit von ca. 90% aufgestellt.
as §2

Regarding `Cc1cc(Oc2ccc3c(c2)CCCC3)c(C)cc1N` [4-(5,6,7,8-Tetrahydro-2-napthoxy)-2,5-dimethylanilin], the logD in the series “logP determination” was found to be 3.08.
In the case of `Cc1cc([N+](=O)[O-])c(C)cc1Oc1ccc2c(c1)CCCC2` [4-(5,6,7,8-Tetrahydro-2-napthoxy)-2,5-dimethylnitrobenzol], the logD in the series “logP determination” was 5.86.
On to `CCN(C)C=Nc1cc(C)c(Oc2ccc3c(c2)CCCC3)cc1C` [Verbindung 13, N-E-thyl-N-methyl-N'-[4-(5,6,7,8-tetrahydro-2-napthoxy)-2,5-dimethylphenyl]form-amidin], for which the Wirkungsgrad (in the series with Podosphaera leucotricha; in series [1]; in the series on Sphaerotheca fuliginea; in the series with Alternaria solani; in the series on Uromyces appendiculatus) was at least 70% in each case.
